Starred links: 1 amine or outer side, 2 acyl side, 3 side chain; linkers in the order of their positions; H or OH if unused. Positions of bridges follow the written chain, without caps; N, C: chain ends. Chains are numbered I, II in the order given. BMOE = O=C1CC([*:1])C(=O)N1CCN1C(=O)CC([*:2])C1=O
How the values were obtained:
[1] = system: Ramos cell line of Burkitt's lymphoma; experiment: Growth of Ramos cells in culture; type: cell-based; conditions: read-out: EC50 growth inhibition in culture
[2] = system: PP2A; experiment: PP2A activity in 32D:BCR/Abl chronic myelogenous leukemia cells (PP2A immunoprecipitation assay); type: cell-based; conditions: 1 μM, 30 minutes
Method: FIGS. 4A-4B. The BMOE-linked dimer peptide COG449 activates PP2A in CML cells. FIG. 4A: 32D-BCR/Abl chronic myelogenous leukemia cells were treated with COG449 (1 μM), COG445 (1 μM) (disulfide-linked COG112 dimer) or no treatment, and the PP2A activity was measured. FIG. 4B: 32D:BCR/Abl cell cultures were treated with no compound, 1 μM COG449, or 5 μM FTY720 for 30 minutes followed by lysis in an NP40 lysis buffer. PP2A was immunoprecipitated and assayed with the PP2A Immunoprecipitation assay kit (Upstate) according to the manufacturer's directions.
To further evaluate the effect of COG449, we measured the ability of the stable dimerized COG449 compound to activate PP2A in 32D:p210^BCR/Abl chronic myelogenous leukemia cells. […] 32D:p210^BCR/Abl chronic myelogenous leukemia cells were treated with no compound, 1 μM COG449, or 5 μM FTY720. We observed a robust increase of approximately 45% relative specific activity (phosphate release/minute/unit protein) of PP2A upon treatment with COG449 alone when compared to the untreated control, and about 20% activation compared with FTY720 (FIG. 4B).

[3] = system: CLL cells; conditions: 24 h
Method: We next sought to determine whether SET antagonism would destabilize Mcl-1. Destabilization of Mcl-1 by treatment with SET antagonists was evaluated by treating primary human CLL cells for 24 hr with the ApoE peptide dimer COG449 (a BMOE-linked dimer of COG112; see Example 2) and evaluating the level of Mcl-1 in the cells.

[4] = Mouse toxicity, maximum tolerated dose by intravenous injection; conditions: in vivo, maximum dose by intravenous injection without deaths after 24 hrs
Description: We also evaluated the various peptides for efficacy in suppressing nitric oxide production induced by LPS stimulation of BV2 microglia cells as a measure of anti-inflammatory activity as well as the maximum dose tolerated in mice (Table I and FIG. 6A). For the LPS assay, EC50 is the concentration of compound that caused a 50% suppression of nitric oxide release from BV2 cells following LPS stimulation. For mouse toxicity, MTD is the maximum dose of the compound that can be given by intravenous injection without causing deaths after 24 hrs. […] Coupling the ApoE domain to a protein transduction domain further enhanced the potency of the dimers.

[5] = system: MDA-231 cells; experiment: Combination treatment of MDA-231 cells (MTT); type: cell-based; conditions: sub-lethal doses, 48 hrs, greater than either compound alone
Method: FIG. 29. Combination treatment with COG449 and sorafenib or gefitinb on triple negative breast cancer (TNBC) cell line growth. MDA-231 cells were grown in the presence of COG449, sorafenib, or gefitinb at sub-lethal doses as indicated. After 48 hrs, live cells were quantified using the MTT assay. *** indicates p<0.001.
(§1) To begin assessment of the potential of combination therapies with COG449, we analyzed the effect of treating MDA-231 cells with sub-lethal doses of COG449 and the multi-kinase inhibitor Sorafenib or the EGFR inhibitor Gefitinib at concentrations below their ED50 doses. […] We also evaluated the effects of COG449 in vivo using xenograft experiments. To determine whether COG449 might be effective against TNBC tumors in xenografts, immune compromised NOD/SCID gamma-chain null (NSG) mice were injected with MDA-231 cells into their 4th mammary glands. Once tumors became palpable at around 10 days, tumors were treated by […] subcutaneous injection of COG449 at 10 mg/kg. At 28 days post-xenograft, daily intra-tumor injection of COG449 was initiated and continued until sacrifice (FIG. 30A). In order to use a more clinically relevant treatment paradigm, MDA-231 xenografted mice were treated 3-times a week with 1 mg/kg COG449 by intravenous injection (FIG. 30B).

[6] = Cytotoxicity on normal B-cells from volunteers; type: cell-based, human; conditions: human, normal B-cells from volunteers
Method: Blood from CLL patients was collected and CD5+/CD19+ CLL cells were isolated using the RosetteSep™ Human B-Cell Enrichment Cocktail, according to the manufacturer's instructions, and treated with COG compounds. Compounds were applied to B-CLL cells (2.5×10^5 cells/well in a 96 well plate), after which the cells were treated for 72 hours.
Normal B-cells from volunteers and B-CLL cells from patients are isolated using the RosetteSep™ Human B Cell Enrichment Cocktail according to the manufacturer's instructions. This method depletes whole blood of T cells, monocytes, and NK cells using a proprietary antibody cocktail that cross-links unwanted cells in human whole blood to multiple red blood cells (RBCs) forming immunorosettes. This increases the density of the unwanted (rosetted) cells, such that they pellet along with the free RBCs when centrifuged over a buoyant density medium such as Ficoll-Paque®. This leaves the highly enriched B-cell or B-CLL cells at the interface between Ficoll and the plasma. The antibodies in the cocktail contain anti-CD14, anti-CD2 and anti-CD16 antibodies to remove T cells, monocytes, and NK cells, respectively. The purity of these B-cell and B-CLL preparations is then determined by flow cytometry. Preparations typically average less than 2% CD3+ T-cells and less than 0.5% CD14+ monocytes. In the case of B-CLL cell isolation, we routinely obtain preparations that contain less than 1.5% normal CD19+/CD5− B-cells using this method.

[7] = system: breast cancer cell lines; experiment: Cytotoxicity in breast cancer cell lines by cell counting; type: cell-based, human; conditions: serum-free media, 24 hrs
Method: FIG. 28. Cytotoxic effects of COG449 in breast cancer cells. Cell lines were grown in serum-free media and COG449 as indicated for 24 hrs. Cellular proliferation was measured by cell counting. Cell number is represented relative to control, untreated cells.

[8] = Tolerability of COG449 by intravenous infusion; type: in vivo
[9] = system: MDA-MB-231 xenografts; experiment: MDA-MB-231 TNBC xenografts in NSG mice; type: in vivo; conditions: both xenograft studies
Method: FIGS. 30A-30B. Inhibition of triple negative breast cancer (TNBC) tumor growth in xenografts with COG449 treatment. FIG. 30A: 4×10^6 MDA-MB-231 cells were injected with Matrigel into the 4th mammary glands of immune compromised mice and treated daily by subcutaneous injection of 10 mg/kg COG449 starting at day 10. FIG. 30B: 4×10^6 MDA-MB-231 cells were injected with Matrigel into the 4th mammary glands of immune compromised mice and treated by intravenous tail vein injection 3× week at 1 mg/kg starting at day 27 post injection. Tumor volume was determined by caliper measurement.
as §1, with “In order to use a more clinically relevant treatment paradigm, MDA-231 xenografted mice were treated 3-times a week with 1 mg/kg COG449 by intravenous injection (FIG. 30B).” left out

[10] = system: U87MG glioblastoma cells; type: cell-based; conditions: MTT
Method: FIG. 14A: Dose response curve of COG445 on proliferation of U87 (open circles) and MDA-MB-231 (filled circles) cells as measured by MTT reduction. FIG. 14B: Dose response curve of COG445 on proliferation of MDA-MB-231 cells as measured by cell count.
To determine whether ApoE peptide dimers were cytotoxic to other types of cancer, we evaluated the effect of three different ApoE BMOE-linked peptide dimers (COG449, COG492, COG493; see Table I) on the growth characteristics of U87MG glioblastoma cells. Various concentrations of COG449, COG492, COG493 or Sorafenib were used to treat U87MG glioblastoma cells and viable cells were quanititated using MTT. Sorafenib, which has previously been reported to be cytotoxic to glioblastoma cells (Yang et al. (2010) Mol Cancer Ther., Vol. 9(4):953-962), was used as a positive control.
Because COG445 inhibited Akt activation and downstream signaling, we examined the effects of COG445 on cellular proliferation. Adherent MB231 and U87 cells were grown for ˜24 hours in the presence of COG445 and cellular proliferation was measured by MTT reduction. […] Furthermore, COG445 inhibited MB231 cellular proliferation as determined by cell count (FIG. 14B). Approximately 6×10^4 cells were plated in growth media (RPMI+10% FBS) for 24-hours with increasing concentrations of COG445. […] However at concentrations ≧1 μM COG445, there appears to be a loss of cells. This is partially explained by decreased proliferation, although it is possible that the rate of cellular degradation was increased in the presence of COG445.

I: Ac-RQIKIWFQNRRMKWKKCLRVRLASHLRKLRKRLL-NH2 / II: Ac-RQIKIWFQNRRMKWKKCLRVRLASHLRKLRKRLL-NH2 (linker I:17-II:17 via BMOE) [COG449, COG112-C-BMOE-C-COG112]
EC50 [1]: 125 nM | increase of relative specific activity of PP2A compared to untreated control [2]: approximately 45% | EC50 [3]: ~110 nM | MTD at 24 h [4]: 12 mg/kg | cytotoxic effect in combination with Gefitinib [5]: robust cytotoxic effect | cytotoxic effect in combination with Sorafenib [5]: robust cytotoxic effect | EC50 at 72 h [6]: > 10000 nM | cytotoxicity to breast cancer cell lines incl. MDA-231, MDA-468, HCC38 [7]: cytotoxic to all cell lines | first adverse events ([8]; 20 mg/kg): mild edema in the front paws and lethargy | adverse effects ([8]; intravenous infusion, 10-15 mg/kg): without any observed adverse effects | cytotoxic effects in mice [9]: No cytotoxic effects | cytotoxicity to U87MG cells [10]: cytotoxic
